Measurements published in ChEMBL document CHEMBL1139211, “E/Z-rubrolide O, an anti-inflammatory halogenated furanone from the New Zealand ascidian Synoicum n. sp” (J Nat Prod, 2007).
The source made the active and inactive calls. The calls are words filed in the database; no cut-off is given here.

Legend:
Neutrophil [1] = experiment: Inhibition of superoxide production in human neutrophils; format: functional, cell-based
HL-60 = experiment: Antiproliferative activity against HL60 cells by MTT assay; format: functional, cell-based; conditions: Homo sapiens
[2] = Viability of human neutrophils by trypan blue assay at 500 uM; format: functional, Neutrophil
Neutrophil [3] = experiment: Inhibition of PMA-induced adhesion of neutrophils; format: functional, cell-based; conditions: Homo sapiens

Question: Which results are given for O=C1O/C(=C\c2ccc(O)c(Br)c2)C(c2cc(Br)c(O)c(Br)c2)=C1Cl [RUBROLIDE O]?
Answer: IC50 (Neutrophil [1]): 35 µM; IC50 (HL-60): 33 µM; Activity [2]: 87%; Activity (Neutrophil [3]): Active
